This assay has as its target T1, recombinant human BACE-1 (Homo sapiens, UniProt P56817).
T1 construct: purchased R & D Systems
As to the kind of experiment: BACE-1 FRET peptide cleavage assay. To be noted: FRET peptide with Swedish variant, 20 mM sodium acetate, 0.1% Triton-X-100, pH 4.5, 2 h, 25° C., triplicate. Format: biochemical. As for the experimental part:
The ability of the HS oligosaccharides to inhibit BACE-1 cleavage of APP was assessed using a fluorescent resonance energy transfer (FRET) peptide cleavage assay employing the Swedish amino acid variant FRET peptide 5-FAM-Glu-Val-Asn-Leu-Asp-Ala-Phe-Lys(QXL520)-OH. When intact, the amino terminal fluorophore is quenched, but upon enzymatic cleavage, it is released from quencher and fluoresces at 520 nm.
BACE inhibition assays: The ability of the compounds to inhibit BACE-1 cleavage of APP was assessed using a fluorescent resonance energy transfer (FRET) peptide cleavage assay employing the FRET peptide HiLyteFluor™488-Glu-Val-Asn-Leu-Asp-Ala-Glu-Phe-Lys(QXL520)-OH (Anaspec Inc, San Jose, Calif.), containing the Swedish amino acid variant. Assays were performed in triplicate in 96-well black plates (Greiner Bio-One Ltd) in a total volume of 100 μl of 20 mM sodium acetate, 0.1% Triton-X-100, pH 4.5 using 114 pmoles FRET peptide/well and 0.1 μg of recombinant human BACE-1 (R & D Systems; specific activity >3.5 pmol/min/μg). Inhibitors were added at 0.01 to 50 μg/mL and mixed with enzyme prior to addition of substrate. Appropriate controls for enzyme activity and background fluorescence were employed and plates were incubated (2 h, 25° C.) with reaction stopped by addition of 100 μl 2.5 M sodium acetate. Fluorescence 480ex/520em was measured on a Polarstar plate reader (BMG LabTechnologies, U.K.) and data were analyzed by plotting log concentration of inhibitor against percent inhibition and using a logistic sigmoidal curve fitting function using OriginPro 8 software (OriginLab Corporation, MA).

[1] abbreviates: read-out: IC50 (μg/ml), inhibitory activity for cleavage of FRET peptide by BACE-1 (converted).
Where [2] appears, read: read-out: IC50 (μmol), inhibitory activity for cleavage of FRET peptide by BACE-1.

Here are results for 8 molecules from US10174132B2, “Heparan sulfate synthesis” (UNIVERSITY OF GEORGIA RESEARCH FOUNDATION, INC., priority 2009, dated 2019).

Where a name gives a salt, the structure may show the parent alone. Read-outs that look alike come from different tables or passages of the source.

T1 sequence (P56817 46-501): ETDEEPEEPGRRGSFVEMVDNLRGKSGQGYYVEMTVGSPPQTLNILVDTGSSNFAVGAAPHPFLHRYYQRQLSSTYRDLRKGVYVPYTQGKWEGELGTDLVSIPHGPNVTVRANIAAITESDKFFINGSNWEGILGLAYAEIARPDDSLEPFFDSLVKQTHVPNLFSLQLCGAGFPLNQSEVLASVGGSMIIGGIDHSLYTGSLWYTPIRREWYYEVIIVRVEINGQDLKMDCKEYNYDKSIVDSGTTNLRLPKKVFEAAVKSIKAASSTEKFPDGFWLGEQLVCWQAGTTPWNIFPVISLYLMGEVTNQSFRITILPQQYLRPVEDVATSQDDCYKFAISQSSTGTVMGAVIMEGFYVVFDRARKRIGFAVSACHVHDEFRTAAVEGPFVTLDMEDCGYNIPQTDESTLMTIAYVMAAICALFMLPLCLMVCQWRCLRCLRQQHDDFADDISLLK

`NCCCCCOC1OC(COS(=O)(=O)O)C(OC2OC(C(=O)O)C(OC3OC(COS(=O)(=O)O)C(OC4OC(C(=O)O)C(OC5OC(COS(=O)(=O)O)C(OC6OC(C(=O)O)C(O)C(O)C6O)C(O)C5NS(=O)(=O)O)C(O)C4O)C(O)C3NS(=O)(=O)O)C(O)C2O)C(O)C1NS(=O)(=O)O` [Compound 69, 5-aminopentyl [(β-D-glucopyranosyluronate)-(1→4)-(2-deoxy-2-sulfoamino-6-O-sulfonato-α-D-glucopyranoside)-(1→4)-O-(α-L-idopyranosyluronate)-(1→4)-O-(2-deoxy-2-sulfoamino-6-O-sulfanate-α-D-glucopyranoside)-(1→4)-(β-D-glucopyranosyluronate)]-(1→4)-O-2-deoxy-N-sulfoamino-6-O-sulfonate-α-D-glucopyranoside nonasodium salt]: the IC50 under setting [1] is 40.1 µM and the IC50 under setting [2] came to 36 µM.
`CC(=O)NC1C(OC2C(C(=O)O)OC(OC3C(COS(=O)(=O)O)OC(OCCCCCN)C(NC(C)=O)C3O)C(O)C2O)OC(COS(=O)(=O)O)C(OC2OC(C(=O)O)C(O)C(O)C2O)C1O` [Compound 76, 5-aminopentyl [(β-D-glucopyranosyluronate)-(1→4)-(2-acetamido-2-deoxy-6-O-sulfanate-α-D-glucopyranoside)-(1→4)-O-(β-D-glucopyranosyluronate-(1→4)-O-2-acetamido-2-deoxy-6-O-sulfanate-α-D-glucopyranosidetetrasodium salt]: the IC50 was 38.2 µM under setting [1] and 35 µM under setting [2].
On to `CC(=O)NC1C(OC2C(C(=O)O)OC(OC3C(COS(=O)(=O)O)OC(OCCCCCN)C(NC(C)=O)C3O)C(O)C2O)OC(COS(=O)(=O)O)C(OC2OC(C(=O)O)C(O)C(O)C2O)C1O` [Compound 78, 5-Aminopentyl[β-D-glucopyranosyluronate-(1→4)-(2-acetamido-2-deoxy-6-O-sulfonate-α-D-glucopyranoside)-(1→4)-α-L-idopyranosyluronate)]-(1→4)-2-acetamido-2-deoxy-6-O-sulfonate-α-D-glucopyranoside tetrasodium salt], for which the IC50 under setting [1] is > 294 µM.
Consider `CC(=O)NC1C(OC2C(C(=O)O)OC(OC3C(COS(=O)(=O)O)OC(OCCCCCN)C(NC(C)=O)C3O)C(O)C2O)OC(COS(=O)(=O)O)C(OC2OC(C(=O)O)C(O)C(O)C2O)C1O` [Compound 80, 5-aminopentyl [(α-L-idopyranosyluronate)-(1→4)-O-(2-acetamido-2-deoxy-6-O-sulfonate-α-D-glucopyranoside)-(1→4)-O-(β-D-glucopyranosyluronate)]-(1→4)-(2-acetamido-2-deoxy-6-O-sulfonate-α-D-glucopyranosidetetrasodium salt], for which the IC50 was 102 µM under setting [1] and 94 µM under setting [2].
For `CC(=O)NC1C(OC2C(C(=O)O)OC(OC3C(COS(=O)(=O)O)OC(OCCCCCN)C(NC(C)=O)C3O)C(O)C2O)OC(COS(=O)(=O)O)C(OC2OC(C(=O)O)C(O)C(O)C2O)C1O` [Compound 82, 5-aminopentyl [(α-L-idopyranosyluronate)-(1→4)-(2-acetamido-2-deoxy-6-O-sulfonate-α-D-glucopyranoside)-(1→4)-O-(α-L-idopyranosyluronate-(1→4)-O-2-acetamido-2-deoxy-6-O-sulfonate-α-D-glucopyranosidetetrasodium salt], the IC50 is 34.2 µM under setting [1] and 32 µM under setting [2].
Turning to `CC(=O)NC1C(OC2C(C(=O)O)OC(OC3C(COS(=O)(=O)O)OC(OCCCCCN)C(NC(C)=O)C3O)C(OS(=O)(=O)O)C2O)OC(COS(=O)(=O)O)C(OC2OC(C(=O)O)C(O)C(O)C2O)C1O` [Compound 84, 5-Aminopentyl [(α-L-idopyranosyluronate)-(1→4)-O-(2-acetamido-2-deoxy-6-O-sulfonate-α-D-glucopyranoside)-(1→4)-O-(2-O-sulfonato-α-L-idopyranosyl-uronate)]-(1→4)-2-deoxy-2-acetamido-6-O-sulfonate-α-D-glucopyranoside penta sodium salt], the IC50 under setting [1] was > 272 µM.
As for `CC(=O)NC1C(OC2C(C(=O)O)OC(OC3C(COS(=O)(=O)O)OC(OCCCCCN)C(NC(C)=O)C3O)C(OS(=O)(=O)O)C2O)OC(COS(=O)(=O)O)C(OC2OC(C(=O)O)C(O)C(O)C2O)C1O` [Compound 85, 5-Aminopentyl [((3-D-glucopyranosyluronate)-(1→4)-O-(2-acetamido-2-deoxy-6-O-sulfonato-α-D-glucopyranoside)-(1→4)-O-(2-O-sulfonato-α-L-idopyranosyluronate)]-(1→4)-2-deoxy-2-acetamido-6-O-sulfonate-α-D-glucopyranosidepentasodium salt], the IC50 is, setting by setting: under setting [1], 152 µM; under setting [2], 138 µM.
As for `NCCCCCOC1OC(COS(=O)(=O)O)C(OC2OC(C(=O)O)C(OC3OC(COS(=O)(=O)O)C(OC4OC(C(=O)O)C(O)C(O)C4O)C(O)C3NS(=O)(=O)O)C(O)C2OS(=O)(=O)O)C(O)C1NS(=O)(=O)O` [Compound 86, 5-Aminopentyl [(β-D-glucopyranosyluronate)-(1→4)-O-(2-deoxy-2-sulfamino-6-O-sulfonate-α-D-glucopyranoside)-(1→4)-O-(2-O-sulfonate-α-L-idopyranosyluronate)-(1→4)-2-deoxy-2-sulfoamino-6-O-sulfonate-α-D-glucopyranosideheptasodium salt], the IC50 under setting [1] was > 255 µM.
